Patent US20230085307A1, “PYRIDAZINONE COMPOUND AND HERBICIDE” (NISSAN CHEMICAL CORPORATION, priority 2019, published 2023)

Columns and labels:
[1] = test system: blackgrass; experiment: Test Example 4: herbicidal effect by soil treatment (Table 19, symbol J); format: in vivo, blackgrass (Alopecurus myosuroides)
How it was run: (§1)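 Emulsion of test compound, water-diluted to predetermined amount, sprayed on soil after sowing (seed depth ~1.5 cm, sterilized diluvial soil). Greenhouse, 25–30° C. Effect graded at three weeks post-spray.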

[2] = test system: southern crabgrass; experiment: Test Example 5: herbicidal effect by foliage application, plastic box (Table 20, symbol F); format: in vivo, southern crabgrass (Digitaria ciliaris); conditions: foliage application, 320 g/ha
How it was run: (§2)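 Post-emergence foliar test in sterilized diluvial soil. Compound applied as water-diluted emulsion at a predetermined rate to 14-day-old plants; evaluation at three weeks.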

[3] = test system: blackgrass; experiment: Test Example 5: herbicidal effect by foliage application, plastic box (Table 20, symbol J); format: in vivo, blackgrass (Alopecurus myosuroides); conditions: foliage application, 320 g/ha
How it was run: as §2

[4] = test system: velvetleaf; experiment: Test Example 5: herbicidal effect by foliage application, plastic box (Table 20, symbol M); format: in vivo, velvetleaf (Abutilon theophrasti); conditions: foliage application, 320 g/ha
How it was run: as §2

[5] = test system: persian speedwell; experiment: Test Example 4: herbicidal effect by soil treatment (Table 19, symbol R); format: in vivo, Persian speedwell (Veronica persica)
How it was run: as §1

[6] = test system: Italian ryegrass; experiment: Test Example 5: herbicidal effect by foliage application, plastic box (Table 20, symbol K); format: in vivo, Italian ryegrass (Lolium multiflorum); conditions: foliage application, 320 g/ha
How it was run: as §2

[7] = test system: barnyard grass; experiment: Test Example 5: herbicidal effect by foliage application, plastic box (Table 20, symbol H); format: in vivo, barnyard grass (Echinochloa crus-galli); conditions: foliage application, 320 g/ha
How it was run: as §2

[8] = test system: persian speedwell; experiment: Test Example 5: herbicidal effect by foliage application, plastic box (Table 20, symbol R); format: in vivo, Persian speedwell (Veronica persica); conditions: foliage application, 320 g/ha
How it was run: as §2

[9] = test system: lambsquarters; experiment: Test Example 4: herbicidal effect by soil treatment (Table 19, symbol O); format: in vivo, lambsquarters (Chenopodium album)
How it was run: as §1

[10] = test system: velvetleaf; experiment: Test Example 4: herbicidal effect by soil treatment (Table 19, symbol M); format: in vivo, velvetleaf (Abutilon theophrasti)
How it was run: as §1

[11] = test system: chickweed; experiment: Test Example 4: herbicidal effect by soil treatment (Table 19, symbol P); format: in vivo, common chickweed (Stellaria media)
How it was run: as §1

[12] = test system: barnyard grass; experiment: Test Example 3: herbicidal effect by foliage application, Wagner pot (Table 18, symbol H); format: in vivo, barnyard grass (Echinochloa crus-galli)
How it was run: (§3)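 Plants were sown in alluvial soil held under 0.1–0.5 cm standing water and grown 14 days in a greenhouse at 25–30 °C. An emulsifiable formulation, water-diluted to the set dose, was then sprayed onto the foliage, and effects were scored three weeks later using previously defined criteria.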

[13] = test system: green foxtail; experiment: Test Example 4: herbicidal effect by soil treatment (Table 19, symbol G); format: in vivo, green foxtail (Setaria viridis)
How it was run: as §1

[14] = test system: rice flat sedge; experiment: Test Example 3: herbicidal effect by foliage application, Wagner pot (Table 18, symbol E); format: in vivo, rice flat sedge (Cyperus iria)
How it was run: as §3

[15] = test system: lambsquarters; experiment: Test Example 5: herbicidal effect by foliage application, plastic box (Table 20, symbol O); format: in vivo, lambsquarters (Chenopodium album); conditions: foliage application, 320 g/ha
How it was run: as §2

[16] = test system: wild oat; experiment: Test Example 4: herbicidal effect by soil treatment (Table 19, symbol I); format: in vivo, wild oat (Avena fatua)
How it was run: as §1

[17] = test system: southern crabgrass; experiment: Test Example 4: herbicidal effect by soil treatment (Table 19, symbol F); format: in vivo, southern crabgrass (Digitaria ciliaris)
How it was run: as §1

[18] = test system: Italian ryegrass; experiment: Test Example 4: herbicidal effect by soil treatment (Table 19, symbol K); format: in vivo, Italian ryegrass (Lolium multiflorum)
How it was run: as §1

[19] = test system: green foxtail; experiment: Test Example 5: herbicidal effect by foliage application, plastic box (Table 20, symbol G); format: in vivo, green foxtail (Setaria viridis); conditions: foliage application, 320 g/ha
How it was run: as §2

[20] = test system: redroot pigweed; experiment: Test Example 4: herbicidal effect by soil treatment (Table 19, symbol N); format: in vivo, redroot pigweed (Amaranthus retroflexus); conditions: 320 g/ha
How it was run: as §1

[21] = test system: Chinese sprangletop; experiment: Test Example 3: herbicidal effect by foliage application, Wagner pot (Table 18, symbol D); format: in vivo, chinese sprangletop (Leptochloa chinensis)
How it was run: as §3

[22] = test system: windgrass; experiment: Test Example 5: herbicidal effect by foliage application, plastic box (Table 20, symbol L); format: in vivo, windgrass (Apera spica-venti); conditions: foliage application, 320 g/ha
How it was run: as §2

[23] = test system: barnyard grass; experiment: Test Example 4: herbicidal effect by soil treatment (Table 19, symbol H); format: in vivo, barnyard grass (Echinochloa crus-galli)
How it was run: as §1

[24] = test system: wild oat; experiment: Test Example 5: herbicidal effect by foliage application, plastic box (Table 20, symbol I); format: in vivo, wild oat (Avena fatua); conditions: foliage application, 320 g/ha
How it was run: as §2

[25] = test system: chickweed; experiment: Test Example 5: herbicidal effect by foliage application, plastic box (Table 20, symbol P); format: in vivo, common chickweed (Stellaria media); conditions: foliage application, 320 g/ha, evaluated three weeks after application
How it was run: as §2

[26] = test system: redroot pigweed; experiment: Test Example 5: herbicidal effect by foliage application, plastic box (Table 20, symbol N); format: in vivo, redroot pigweed (Amaranthus retroflexus); conditions: foliage application, 320 g/ha, evaluated three weeks after application
How it was run: as §2

[27] = amount of applied herbicide 320 g/ha
[28] = evaluated three weeks after application

With `COCCC(=O)Oc1c(C)nn(C)c(=O)c1-c1c(-c2ccc(F)cc2)sc2ccc(F)cc12` [2-003] the “herbicidal effect rating, J: blackgrass” value ([1]; 320 g/ha) was 3 (Herbicidal rate of 40% or more and less than 70%), the “effect on southern crabgrass (F)” value ([2]; 3 weeks after application) was 5 (Herbicidal rate of 90% or more (almost completely withered)) and the “effect on blackgrass (J)” value ([3]; 3 weeks after application) was 4 (Herbicidal rate of 70% or more and less than 90%). For the same compound, the “effect on velvetleaf (M)” value ([4]; 3 weeks after application) was 5 (Herbicidal rate of 90% or more (almost completely withered)), the “herbicidal effect rating, R: persian speedwell” value ([5]; 320 g/ha) was 4 (Herbicidal rate of 70% or more and less than 90%) and the “effect on Italian ryegrass (K)” value ([6]; 3 weeks after application) was 4 (Herbicidal rate of 70% or more and less than 90%). The “effect on barnyard grass (H)” value ([7]; 3 weeks after application) was 5 (Herbicidal rate of 90% or more (almost completely withered)), the “effect on persian speedwell (R)” value ([8]; 3 weeks after application) was 5 (Herbicidal rate of 90% or more (almost completely withered)) and the “herbicidal effect rating, O: lambsquarters” value ([9]; 320 g/ha) was 5 (Herbicidal rate of 90% or more (almost completely withered)). For the same compound, the “herbicidal effect rating, M: velvetleaf” value ([10]; 320 g/ha) was 5 (Herbicidal rate of 90% or more (almost completely withered)), the “herbicidal effect rating, P: chickweed” value ([11]; 320 g/ha) was 3 (Herbicidal rate of 40% or more and less than 70%) and the “herbicidal effect on H (barnyard grass), rating 0-5” value ([12]; 320 g/ha) was 5 (Herbicidal rate of 90% or more (almost completely withered)). For the same compound, the “herbicidal effect rating, G: green foxtail” value ([13]; 320 g/ha) was 5 (Herbicidal rate of 90% or more (almost completely withered)), the “herbicidal effect on E (rice flat sedge), rating 0-5” value ([14]; 320 g/ha) was 5 (Herbicidal rate of 90% or more (almost completely withered)) and the “effect on lambsquarters (O)” value ([15]; 3 weeks after application) was 5 (Herbicidal rate of 90% or more (almost completely withered)). The “herbicidal effect rating, I: wild oat” value ([16]; 320 g/ha) was 0 (Herbicidal rate of 5% or less (almost no effect)), the “herbicidal effect rating, F: southern crabgrass” value ([17]; 320 g/ha) was 5 (Herbicidal rate of 90% or more (almost completely withered)) and the “herbicidal effect rating, K: Italian ryegrass” value ([18]; 320 g/ha) was 5 (Herbicidal rate of 90% or more (almost completely withered)). For the same compound, the “effect on green foxtail (G)” value ([19]; 3 weeks after application) was 5 (Herbicidal rate of 90% or more (almost completely withered)), the “herbicidal effect rating, N: redroot pigweed” value [20] was 5 (Herbicidal rate of 90% or more (almost completely withered)) and the “herbicidal effect on D (Chinese sprangletop), rating 0-5” value ([21]; 320 g/ha) was 3 (Herbicidal rate of 40% or more and less than 70%). The “effect on windgrass (L)” value ([22]; 3 weeks after application) was 4 (Herbicidal rate of 70% or more and less than 90%), the “herbicidal effect rating, H: barnyard grass” value ([23]; 320 g/ha) was 5 (Herbicidal rate of 90% or more (almost completely withered)) and the “effect on wild oat (I)” value ([24]; 3 weeks after application) was 2 (Herbicidal rate of 20% or more and less than 40%).

In the case of `CCCC(=O)Oc1c(C)nn(C)c(=O)c1-c1c(-c2ccccc2)sc2ccc(C)cc12` [2-133], the “J: blackgrass, herbicidal effect rating” value [1, 27] is reported as 0 (Herbicidal rate of 5% or less (almost no effect)), the “herbicidal effect on P: chickweed” value [25] is reported as 5 (Herbicidal rate of 90% or more (almost completely withered)) and the “herbicidal effect on F: southern crabgrass” value [2, 28] is reported as 0 (Herbicidal rate of 5% or less (almost no effect)). The “herbicidal effect on J: blackgrass” value [3, 28] was 0 (Herbicidal rate of 5% or less (almost no effect)), the “herbicidal effect on M: velvetleaf” value [4, 28] was 5 (Herbicidal rate of 90% or more (almost completely withered)) and the “R: persian speedwell, herbicidal effect rating” value [5, 27] was 0 (Herbicidal rate of 5% or less (almost no effect)). For the same compound, the “herbicidal effect on K: Italian ryegrass” value [6, 28] was 3 (Herbicidal rate of 40% or more and less than 70%), the “herbicidal effect on H: barnyard grass” value [7, 28] was 0 (Herbicidal rate of 5% or less (almost no effect)) and the “herbicidal effect on R: persian speedwell” value [8, 28] was 2 (Herbicidal rate of 20% or more and less than 40%). The “O: lambsquarters, herbicidal effect rating” value [9, 27] was 5 (Herbicidal rate of 90% or more (almost completely withered)), the “M: velvetleaf, herbicidal effect rating” value [10, 27] was 0 (Herbicidal rate of 5% or less (almost no effect)) and the “P: chickweed, herbicidal effect rating” value [11, 27] was 5 (Herbicidal rate of 90% or more (almost completely withered)). For the same compound, the “herbicidal effect on H: barnyard grass” value [12, 27] was 0 (Herbicidal rate of 5% or less (almost no effect)), the “herbicidal effect on N: redroot pigweed” value [26] was 5 (Herbicidal rate of 90% or more (almost completely withered)) and the “G: green foxtail, herbicidal effect rating” value [13, 27] was 0 (Herbicidal rate of 5% or less (almost no effect)). For the same compound, the “herbicidal effect on E: rice flat sedge” value [14, 27] was 5 (Herbicidal rate of 90% or more (almost completely withered)), the “herbicidal effect on O: lambsquarters” value [15, 28] was 4 (Herbicidal rate of 70% or more and less than 90%) and the “I: wild oat, herbicidal effect rating” value [16, 27] was 0 (Herbicidal rate of 5% or less (almost no effect)). For the same compound, the “F: southern crabgrass, herbicidal effect rating” value [17, 27] was 0 (Herbicidal rate of 5% or less (almost no effect)), the “K: Italian ryegrass, herbicidal effect rating” value [18, 27] was 0 (Herbicidal rate of 5% or less (almost no effect)) and the “herbicidal effect on G: green foxtail” value [19, 28] was 2 (Herbicidal rate of 20% or more and less than 40%). For the same compound, the “herbicidal effect on D: Chinese sprangletop” value [21, 27] was 0 (Herbicidal rate of 5% or less (almost no effect)), the “herbicidal effect on L: windgrass” value [22, 28] was 0 (Herbicidal rate of 5% or less (almost no effect)) and the “H: barnyard grass, herbicidal effect rating” value [23, 27] was 0 (Herbicidal rate of 5% or less (almost no effect)). For the same compound, the “herbicidal effect on I: wild oat” value [24, 28] was 0 (Herbicidal rate of 5% or less (almost no effect)).
